Usually IC50 stands for the concentration needed to halve the response being measured.

The target of one assay is T1, CD45 (Homo sapiens, UniProt P08575).
T1 sequence (P08575 26-1306): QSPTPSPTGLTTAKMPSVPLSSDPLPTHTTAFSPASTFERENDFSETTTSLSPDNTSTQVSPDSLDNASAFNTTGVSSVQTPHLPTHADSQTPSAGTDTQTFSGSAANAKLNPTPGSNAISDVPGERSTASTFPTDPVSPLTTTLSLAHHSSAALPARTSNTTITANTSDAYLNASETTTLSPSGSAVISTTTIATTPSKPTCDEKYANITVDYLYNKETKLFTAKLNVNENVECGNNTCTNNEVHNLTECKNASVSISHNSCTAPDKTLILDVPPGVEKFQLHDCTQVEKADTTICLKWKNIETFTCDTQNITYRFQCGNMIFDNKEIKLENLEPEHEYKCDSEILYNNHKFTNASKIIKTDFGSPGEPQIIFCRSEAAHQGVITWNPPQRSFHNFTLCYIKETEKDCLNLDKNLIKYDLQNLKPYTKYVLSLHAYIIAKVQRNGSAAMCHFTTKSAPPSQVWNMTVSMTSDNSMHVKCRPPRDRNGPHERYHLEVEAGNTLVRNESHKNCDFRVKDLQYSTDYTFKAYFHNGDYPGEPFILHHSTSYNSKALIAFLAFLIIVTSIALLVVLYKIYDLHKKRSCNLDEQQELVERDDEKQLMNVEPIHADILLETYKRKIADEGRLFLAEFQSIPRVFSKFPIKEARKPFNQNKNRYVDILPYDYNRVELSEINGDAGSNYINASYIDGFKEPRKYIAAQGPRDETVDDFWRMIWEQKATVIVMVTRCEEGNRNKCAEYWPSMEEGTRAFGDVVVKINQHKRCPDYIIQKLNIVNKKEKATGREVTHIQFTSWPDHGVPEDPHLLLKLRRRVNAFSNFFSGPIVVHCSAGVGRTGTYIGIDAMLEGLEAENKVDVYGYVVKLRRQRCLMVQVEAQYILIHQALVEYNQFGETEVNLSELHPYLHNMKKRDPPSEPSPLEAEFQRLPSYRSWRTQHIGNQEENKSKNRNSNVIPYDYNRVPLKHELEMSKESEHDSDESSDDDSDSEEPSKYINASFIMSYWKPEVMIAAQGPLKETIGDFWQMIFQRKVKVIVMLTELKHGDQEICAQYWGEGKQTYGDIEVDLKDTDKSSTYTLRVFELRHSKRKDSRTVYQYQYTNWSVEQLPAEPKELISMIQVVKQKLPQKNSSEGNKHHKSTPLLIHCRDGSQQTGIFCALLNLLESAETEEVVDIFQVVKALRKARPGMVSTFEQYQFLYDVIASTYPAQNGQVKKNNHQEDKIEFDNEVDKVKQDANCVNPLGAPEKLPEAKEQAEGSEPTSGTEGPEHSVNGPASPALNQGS
Nature of the assay: PTP activity assay with pNPP as substrate: CD45. The class given is biochemical. To be noted: pNPP as substrate at Km, pH 7.0, 25° C., I = 0.15 M.

The next assay relates to PP2A. To be noted: literature values; cited from earlier work.
A further assay concerns the target T2, HePTP (Homo sapiens, UniProt P35236).
T2 sequence (P35236 1-360): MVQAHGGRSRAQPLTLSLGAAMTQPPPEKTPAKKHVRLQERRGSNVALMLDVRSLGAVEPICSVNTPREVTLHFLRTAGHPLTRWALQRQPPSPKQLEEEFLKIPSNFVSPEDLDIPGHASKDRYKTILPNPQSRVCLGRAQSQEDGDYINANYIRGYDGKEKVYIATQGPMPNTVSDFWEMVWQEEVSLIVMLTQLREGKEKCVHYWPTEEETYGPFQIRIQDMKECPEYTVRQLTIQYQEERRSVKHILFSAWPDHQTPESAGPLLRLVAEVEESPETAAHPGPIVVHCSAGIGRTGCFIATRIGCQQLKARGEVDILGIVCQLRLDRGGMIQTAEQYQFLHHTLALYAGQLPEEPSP
Briefly: PTP activity assay with pNPP as substrate: HePTP. Format: biochemical. The conditions noted are these: pNPP as substrate at Km, pH 7.0, 25° C., I = 0.15 M.

For the next assay, the target named is PTPα (Homo sapiens, UniProt P18433). Briefly: PTP activity assay with pNPP as substrate: PTPα. The class given is biochemical. To be noted: pNPP as substrate at Km, pH 7.0, 25° C., I = 0.15 M.
The subject of assay [1] is GM-CSF induced ERK1/2 activation in macrophage progenitors. Nature of the assay: GM-CSF induced ERK1/2 activation in macrophage progenitors, immunoblot. Format: cell-based. To be noted: 2 μM TTN for 2 hours, GM-CSF 50 ng/mL. Here is the method:
Bone marrow low density mononuclear cells (LDMNCs) were transduced with MIEG3 (empty vector), MIEG3-WT SHP2, or MIEG3-SHP2/E76K, sorted based on enhanced green fluorescent protein (EGFP) expression, and cultured for 5 days in M-CSF 100 ng/mL to generate macrophage progenitors, as previously described (Chan et al., 2005). Cells were serum- and growth factor-deprived for 16 hours, treated with 2 μM TTN for 2 hours, and stimulated with GM-CSF 50 ng/mL followed by preparation of protein extracts. Extracts were evaluated by immunoblot using α-phospho-ERK1/2 for activated ERK levels and α-ERK1/2 for total ERK levels (Cell Signaling Technology, Beverly, Mass.).
For biochemical studies, macrophage progenitor cells expressing empty vector (MIEG3), wild-type SHP2, or SHP2/E76K were serum- and growth factor-deprived for […]. Cells were pre-treated with DMSO or 2 μM TTN for 2 hours, and then cultures either remained unstimulated or were stimulated with GM-CSF at 50 ng/mL for 60 minutes. […] They next examined the effect of TTN on GM-CSF-stimulated hyperproliferation of SHP2/E76K-expressing hematopoietic progenitors. […] To provide further evidence that SHP2 is a molecular target of TTN, the inventors determined the X-ray crystal structure of SHP2 in complex with TTN D-1, as crystallization attempts for the SHP2-TTN complex were unsuccessful. […]
Background: In western blotting, separated proteins are transferred to a membrane and probed.

Chain of PTPα (P18433 20-802): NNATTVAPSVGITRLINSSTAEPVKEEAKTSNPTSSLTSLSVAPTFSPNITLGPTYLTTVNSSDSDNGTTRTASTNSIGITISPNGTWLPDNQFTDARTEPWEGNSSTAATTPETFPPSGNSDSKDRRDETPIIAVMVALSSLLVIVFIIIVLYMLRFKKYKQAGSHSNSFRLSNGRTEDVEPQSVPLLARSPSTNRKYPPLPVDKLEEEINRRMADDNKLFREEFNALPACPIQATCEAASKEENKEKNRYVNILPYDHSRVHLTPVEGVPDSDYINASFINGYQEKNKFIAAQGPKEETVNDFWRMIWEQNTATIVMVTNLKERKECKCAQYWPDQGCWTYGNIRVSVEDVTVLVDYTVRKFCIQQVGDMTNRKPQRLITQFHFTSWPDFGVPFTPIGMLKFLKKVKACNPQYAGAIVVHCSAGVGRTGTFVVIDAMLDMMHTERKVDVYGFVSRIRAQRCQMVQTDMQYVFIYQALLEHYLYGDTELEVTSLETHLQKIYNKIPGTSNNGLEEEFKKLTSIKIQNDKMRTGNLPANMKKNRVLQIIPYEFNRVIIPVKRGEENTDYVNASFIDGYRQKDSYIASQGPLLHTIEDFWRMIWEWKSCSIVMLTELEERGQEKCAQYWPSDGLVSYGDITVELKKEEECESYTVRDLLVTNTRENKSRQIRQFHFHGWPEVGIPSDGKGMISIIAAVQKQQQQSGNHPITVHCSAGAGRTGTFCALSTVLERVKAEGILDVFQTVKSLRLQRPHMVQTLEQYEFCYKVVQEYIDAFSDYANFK
Procedure for CD45: (§1) The PTP activity was assayed using pNPP as a substrate at 25° C. in 50 mM 3,3-dimethylglutarate buffer, pH 7.0, containing 1 mM EDTA with an ionic strength of 0.15 M adjusted by NaCl. TTM, TTN and the engineered analogs were analyzed for inhibition of a panel of PTPs at 10 μM compound concentration. For each enzyme screened, test compounds were diluted to 20 μM in 100 μL and combined with 50 μL pNPP at a concentration of 4×Km. The reaction was initiated by the addition of 50 μL of 4× concentrated enzyme and pNPP was allowed to convert to the product p-nitrophenol. The reaction was quenched by the addition of 50 μL of 5N NaOH. Nonenzymatic hydrolysis of pNPP was corrected by measuring the control without the addition of enzyme. Production of p-nitrophenol was monitored by a Spectra MAX385 microplate spectrophotometer (Molecular Devices) at 405 nm using a molar extinction coefficient of 18,000 M^−1 cm^−1. IC50 values were calculated by fitting the absorbance at 405 nm versus inhibitor concentration to the following equation: AI/A0=IC50/(IC50+[I]) where AI is the absorbance at 405 nm of the sample in the presence of inhibitor; Ao is the absorbance at 405 nm in the absence of inhibitor; and [I] is the concentration of the inhibitor.
Procedure for HePTP: as §1
Procedure for PTPα: as §1

Take tautomycetin [TTN]: the IC50 is more than 50 µM against CD45, 0.062 µM in the assay with PP2A, more than 50 µM against HePTP and more than 50 µM against PTPα. Further, in assay [1], the “effect on ERK1/2 hyperactivation in SHP2/E76K-expressing cells” value was “effectively inhibited”. In addition, the “effect on GM-CSF induced ERK1/2 activation in macrophage progenitors” value in assay [1] is on record as “abrogated”.
